# Assay results as given in paper PMC7503225, “Repositioning Dequalinium as Potent Muscarinic Allosteric Ligand by Combining Virtual Screening Campaigns and Experimental Binding Assays” (International Journal of Molecular Sciences, 2020).
# Read-outs that look alike come from different tables or passages of the source.
# How the values were obtained:
# [1] = ref DrugBank [16]; cited from earlier work
# hM5 muscarinic receptor = target: T1, hM5 muscarinic receptor (Homo sapiens, UniProt P08912); assay: Equilibrium inhibition binding with [3H]-NMS, CHO cell membranes
# T1 construct: expressed in transfected cells; host or cells: CHO cells, stably transfected; membrane fractions
# T1 sequence (P08912 1-532): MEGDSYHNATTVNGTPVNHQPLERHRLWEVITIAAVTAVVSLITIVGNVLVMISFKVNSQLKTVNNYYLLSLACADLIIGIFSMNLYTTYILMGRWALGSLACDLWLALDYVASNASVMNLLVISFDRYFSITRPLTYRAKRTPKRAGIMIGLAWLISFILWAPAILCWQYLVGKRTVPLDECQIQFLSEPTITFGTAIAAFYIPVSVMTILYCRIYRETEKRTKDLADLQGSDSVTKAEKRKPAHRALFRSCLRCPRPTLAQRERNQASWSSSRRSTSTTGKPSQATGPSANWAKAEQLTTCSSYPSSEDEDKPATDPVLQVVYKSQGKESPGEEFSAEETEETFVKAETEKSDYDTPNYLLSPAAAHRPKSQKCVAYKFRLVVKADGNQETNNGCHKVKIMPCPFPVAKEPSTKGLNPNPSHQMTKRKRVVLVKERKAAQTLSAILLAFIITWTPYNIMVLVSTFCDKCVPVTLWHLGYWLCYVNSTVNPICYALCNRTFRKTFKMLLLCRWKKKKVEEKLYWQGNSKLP
# Method: (§1) All tested compounds were purchased from Merck KGaA (Darmstadt, Germany). The radioligand binding experiments were performed with membranes from Chinese Hamster Ovary (CHO) cells stably transfected with the five cloned human muscarinic receptor subtypes (hM1-5). Membrane fractions were prepared according to the protocol, which have been previously described; membranes were stored at −80 °C until use. Nonspecific binding was defined by the radioactivity bound in the presence of 10 µM atropine.
# (§2) Aliquots of membranes (25–70 µg/mL) were added and incubated for 2 h at room temperature, filtered through UniFilter GF/B plates (PerkinElmer Life and Analytical Science, Monza, Italy) using a FilterMate cell harvester (PerkinElmer Life and Analytical Science, Monza, Italy). The filters were washed several times with ice-cold MilliQ water. Then, the plates were counted in a β-counter (TopCount NXT microplate scintillation counter, PerkinElmer Life and Analytical Science, Monza, Italy).
# (§3) Data points from radioligand inhibition binding curve were fitted to models using nonlinear regression equation to determine inhibitor potency (IC50) estimates, which were then converted to Ki values as appropriate.
# (§4) All the results are expressed as means ± SEM obtained from 3-4 independent experiments each one performed in duplicate.
# hM2 muscarinic receptor = target: T2, hM2 muscarinic receptor (Homo sapiens, UniProt P08172); assay: as above; details: [3H]-NMS 0.2 nM, mean ± SEM of 3-4 experiments, read-out: pKi hM2 (converted)
# T2 construct: expressed in transfected cells; host or cells: CHO cells, stably transfected; membrane fractions
# T2 sequence (P08172 1-466): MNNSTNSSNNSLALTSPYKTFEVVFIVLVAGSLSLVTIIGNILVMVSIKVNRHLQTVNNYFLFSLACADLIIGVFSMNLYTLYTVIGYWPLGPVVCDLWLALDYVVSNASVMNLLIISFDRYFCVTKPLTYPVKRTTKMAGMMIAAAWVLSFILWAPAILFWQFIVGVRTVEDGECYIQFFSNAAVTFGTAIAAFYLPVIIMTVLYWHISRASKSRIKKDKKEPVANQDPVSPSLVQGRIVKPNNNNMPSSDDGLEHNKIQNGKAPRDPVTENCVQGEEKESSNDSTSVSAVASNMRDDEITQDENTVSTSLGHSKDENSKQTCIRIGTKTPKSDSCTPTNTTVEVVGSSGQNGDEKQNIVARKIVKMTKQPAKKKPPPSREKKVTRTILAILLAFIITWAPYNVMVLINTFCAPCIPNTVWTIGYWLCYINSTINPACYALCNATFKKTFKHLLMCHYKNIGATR
# Method: as §1, §2, §3, §4
# hM4 muscarinic receptor = target: T3, hM4 muscarinic receptor (Homo sapiens, UniProt P08173); assay: as above
# T3 construct: expressed in transfected cells; host or cells: CHO cells, stably transfected; membrane fractions
# T3 sequence (P08173 1-479): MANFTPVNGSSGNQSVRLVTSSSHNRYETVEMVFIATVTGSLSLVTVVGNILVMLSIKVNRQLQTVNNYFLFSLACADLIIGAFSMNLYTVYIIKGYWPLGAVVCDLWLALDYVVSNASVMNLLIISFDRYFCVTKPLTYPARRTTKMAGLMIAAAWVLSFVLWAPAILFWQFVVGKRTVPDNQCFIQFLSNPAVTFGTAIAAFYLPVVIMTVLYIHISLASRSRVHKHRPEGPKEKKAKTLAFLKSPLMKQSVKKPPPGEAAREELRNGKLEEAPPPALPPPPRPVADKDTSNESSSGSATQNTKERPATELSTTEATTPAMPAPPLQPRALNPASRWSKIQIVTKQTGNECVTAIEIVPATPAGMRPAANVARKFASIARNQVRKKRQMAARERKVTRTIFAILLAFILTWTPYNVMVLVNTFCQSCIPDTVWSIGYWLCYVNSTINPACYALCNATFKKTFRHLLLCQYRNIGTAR
# Method: as §1, §2, §3, §4
# [2] = target: five human muscarinic receptors subtypes (hM1–hM5); assay: Equilibrium binding, summary statements over the five subtypes
# Method: as §1, §2, §3, §4
# hM3 muscarinic receptor = target: T4, hM3 muscarinic receptor (Homo sapiens, UniProt P20309); assay: Equilibrium inhibition binding with [3H]-NMS, CHO cell membranes; details: [3H]-NMS 0.2 nM, mean ± SEM of 3-4 experiments, read-out: pKi hM3 (converted)
# T4 construct: expressed in transfected cells; host or cells: CHO cells, stably transfected; membrane fractions
# Method: as §1, §2, §3, §4
# hM1 muscarinic receptor = target: T5, hM1 muscarinic receptor (Homo sapiens, UniProt P11229); assay: as above; details: [3H]-NMS 0.2 nM, mean ± SEM of 3-4 experiments, read-out: pKi hM1 (converted)
# T5 construct: expressed in transfected cells; host or cells: CHO cells, stably transfected; membrane fractions
# T5 sequence (P11229 1-460): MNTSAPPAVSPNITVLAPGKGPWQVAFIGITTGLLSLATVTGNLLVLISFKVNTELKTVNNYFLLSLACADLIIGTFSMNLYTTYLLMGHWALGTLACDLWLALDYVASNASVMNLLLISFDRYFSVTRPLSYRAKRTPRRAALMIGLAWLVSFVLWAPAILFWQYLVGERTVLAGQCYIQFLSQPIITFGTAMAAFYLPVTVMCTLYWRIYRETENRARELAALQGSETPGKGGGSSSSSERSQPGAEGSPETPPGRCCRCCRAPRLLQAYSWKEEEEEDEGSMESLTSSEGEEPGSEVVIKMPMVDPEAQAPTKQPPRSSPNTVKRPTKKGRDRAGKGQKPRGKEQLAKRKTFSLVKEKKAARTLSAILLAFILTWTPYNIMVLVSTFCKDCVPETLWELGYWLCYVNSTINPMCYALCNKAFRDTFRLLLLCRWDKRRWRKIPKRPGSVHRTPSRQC
# Method: as §1, §2, §3, §4
# [3] = target: T6, [3H]-NMS-occupied muscarinic hM2 subtype (Homo sapiens, UniProt P08172); assay: One point kinetic (off-rate) assay of [3H]-NMS dissociation; format: binding; details: for Kd: read-out: Log Kocc hM2 (converted)
# T6 construct: expressed in transfected cells; host or cells: CHO cells, stably transfected; membrane fractions
# T6 sequence (P08172 1-466): T2 sequence (P08172 1-466)
# Method: as §1
# Off-rate assays were performed as described elsewhere to estimate the affinity of the ligands for the [^3H]-NMS-occupied receptor (log Kocc). Briefly, a high concentration of membranes (about 0.1 mg/mL) was incubated with a high concentration of [^3H]-NMS (2 nM) for 60 min at room temperature (mix membrane). Next, 100 µL aliquots were distributed into polypropylene tubes that were empty or in a final volume of 1 mL binding buffer with 1 µM atropine alone and in the presence of a range of concentrations of tested compound (1 nM–0.1 mM).
# The effect on the radioligand dissociation of each tested ligand was determined at 0 min and at one time point, which was chosen to be ca 2.5 dissociation half-lives of [^3H]-NMS alone from each subtype receptors. Later (80 min for hM1, 20 min for hM2 and 70 min for hM5), the samples were filtered and counted as previously reported. Non specific binding was measured as previously reported.
# as §4
# [4] = [3H]-NMS 0.2 nM, CHO membranes, mean ± SEM of 3-4 experiments, read-out: pKi hM5 (converted)
# [5] = [3H]-NMS 0.2 nM, CHO membranes, mean ± SEM of 3-4 experiments, read-out: pKi hM4 (converted)
# T4 sequence (P20309 whole entry): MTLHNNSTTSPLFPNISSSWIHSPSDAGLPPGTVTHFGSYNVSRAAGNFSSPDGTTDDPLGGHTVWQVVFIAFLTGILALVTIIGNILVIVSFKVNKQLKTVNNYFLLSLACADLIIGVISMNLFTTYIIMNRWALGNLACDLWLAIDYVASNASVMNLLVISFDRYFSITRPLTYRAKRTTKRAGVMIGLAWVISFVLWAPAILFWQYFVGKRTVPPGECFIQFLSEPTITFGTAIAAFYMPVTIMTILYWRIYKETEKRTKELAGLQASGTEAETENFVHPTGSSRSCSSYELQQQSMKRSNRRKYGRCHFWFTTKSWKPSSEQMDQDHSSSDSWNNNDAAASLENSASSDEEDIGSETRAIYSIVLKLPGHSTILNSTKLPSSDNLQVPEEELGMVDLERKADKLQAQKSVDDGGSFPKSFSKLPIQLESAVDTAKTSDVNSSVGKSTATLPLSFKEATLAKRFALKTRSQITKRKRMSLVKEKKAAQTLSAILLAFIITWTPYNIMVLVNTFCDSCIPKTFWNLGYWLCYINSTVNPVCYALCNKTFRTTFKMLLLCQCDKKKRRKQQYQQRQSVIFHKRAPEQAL
smiles,measurement,setting,value
CCCCC[C@H](O)/C=C/[C@H]1[C@H](O)CC(=O)[C@@H]1C/C=C\CCCC(=O)O [dinoprostone],logP,[1],2.8
C[N+](C)(CCCCCC[N+](C)(C)C1c2ccccc2-c2ccccc21)C1c2ccccc2-c2ccccc21 [hexafluronium],logP,[1],1.8
C[n+]1ccc(-c2cc[n+](C)cc2)cc1 [paraquat],Ki,hM5 muscarinic receptor,14.8 µM
same,Ki,hM2 muscarinic receptor,23.4 µM
same,Ki,hM4 muscarinic receptor,> 100 µM
CCOC(=O)CN[C@@H](C(=O)N1CC[C@H]1C(=O)NCc1ccc(/C(N)=N\O)cc1)C1CCCCC1 [ximelagatran],logP,[1],1.4
CN(CCCCCCCCCCN(C)C(=O)Oc1cccc([N+](C)(C)C)c1)C(=O)Oc1cccc([N+](C)(C)C)c1 [demecarium],logP,[1],0.6
N=C(N)c1ccc(/N=N/Nc2ccc(C(=N)N)cc2)cc1 [diminazene],pKi values (muscarinic subtypes overall),[2],around 5
same,Ki,hM5 muscarinic receptor; [4],4.79 µM
same,Ki,hM3 muscarinic receptor,4.79 µM
same,Ki,hM2 muscarinic receptor,5.62 µM
same,Ki,hM1 muscarinic receptor,3.16 µM
same,Ki,hM4 muscarinic receptor; [5],8.91 µM
same,Kd,[3],155 µM
CCCCCCCCCCC[C@@H](C[C@@H]1OC(=O)[C@H]1CCCCCC)OC(=O)[C@H](CC(C)C)NC=O [orlistat],logP,[1],7.5
same,Ki,hM5 muscarinic receptor; [4],> 100 µM
same,Ki,hM3 muscarinic receptor,> 100 µM
same,Ki,hM2 muscarinic receptor,> 100 µM
same,Ki,hM1 muscarinic receptor,> 100 µM
same,Ki,hM4 muscarinic receptor; [5],> 100 µM
same,Log Kocc hM2,"[3]; Table 4, affinity estimate at [3H]-NMS-occupied receptor, one time point 20 min, mean ± SEM",completely inactive
same,Kd,[3],> 1000 µM
CC[N+](CC)(CCNC(=O)C(=O)NCC[N+](CC)(CC)Cc1ccccc1Cl)Cc1ccccc1Cl [ambenonium],logP,[1],2.3
CS(=O)(=O)CCNCc1ccc(-c2ccc3ncnc(Nc4ccc(OCc5cccc(F)c5)c(Cl)c4)c3c2)o1 [lapatinib],logP,[1],5.2
CC(C)COCC(CN(Cc1ccccc1)c1ccccc1)N1CCCC1 (stereo not drawn) [bepridil],logP,[1],5.2
CC(C)N1CCN(c2ccc(OCC3COC(Cn4cncn4)(c4ccc(Cl)cc4Cl)O3)cc2)CC1 (stereo not drawn) [terconazole],logP,[1],4.5
C/C(=C\C(=O)OCCCCCCCCC(=O)O)C[C@@H]1OC[C@H](C[C@@H]2O[C@H]2[C@@H](C)[C@H](C)O)[C@@H](O)[C@H]1O [mupirocin],logP,[1],2.2
O=c1[nH]c2ccccc2n1C1CCN(CCCC(c2ccc(F)cc2)c2ccc(F)cc2)CC1 [pimozide],logP,[1],6.3
CC(C)(C)C(=O)OCOP(=O)(COCCn1cnc2c(N)ncnc21)OCOC(=O)C(C)(C)C [adefovir dipivoxil],logP,[1],1.5
CC(C)(C)c1ccc(C(O)CCCN2CCC(C(O)(c3ccccc3)c3ccccc3)CC2)cc1 (stereo not drawn) [terfenadine],logP,[1],5.9
same,Ki,hM4 muscarinic receptor; [5],11 µM
OCc1cc(C(O)CNCCCCCCOCCCCc2ccccc2)ccc1O (stereo not drawn) [salmeterol],logP,[1],3.8
same,Ki,hM5 muscarinic receptor; [4],12.6 µM
same,Ki,hM3 muscarinic receptor,12 µM
same,Ki,hM1 muscarinic receptor,3.24 µM
same,Ki,hM4 muscarinic receptor; [5],9.77 µM
CC(C)OC(=O)CCC/C=C\C[C@@H]1[C@@H](CC[C@@H](O)CCc2ccccc2)[C@H](O)C[C@@H]1O [latanoprost],logP,[1],4.2
N#Cc1ccc2[nH]cc(CCCCN3CCN(c4ccc5oc(C(N)=O)cc5c4)CC3)c2c1 [vilazodone],logP,[1],4.2
CC#CCC(C)[C@H](O)/C=C/[C@@H]1[C@H]2C/C(=C/CCCC(=O)O)C[C@H]2C[C@H]1O (stereo partly drawn) [iloprost],logP,[1],4.2
COCCCOc1cc(C[C@@H](C[C@H](N)[C@@H](O)C[C@H](C(=O)NCC(C)(C)C(N)=O)C(C)C)C(C)C)ccc1OC [aliskiren],pKi values (muscarinic subtypes overall),[2],devoid of affinity for all muscarinic receptors
same,logP,[1],3.3
same,Ki,hM5 muscarinic receptor; [4],> 100 µM
same,Ki,hM4 muscarinic receptor; [5],> 100 µM
C=CCNc1nc(NCC=C)nc(N2CCN(C(c3ccc(F)cc3)c3ccc(F)cc3)CC2)n1 [almitrine],logP,[1],4.1
COc1ccccc1OCCNCC(O)COc1cccc2[nH]c3ccccc3c12 (stereo not drawn) [carvedilol],logP,[1],3.1
C[C@H](Cc1cc2c(c(C(N)=O)c1)N(CCCO)CC2)NCCOc1ccccc1OCC(F)(F)F [silodosin],logP,[1],3.0
CC(=O)N1CCN(c2ccc(OCC3COC(Cn4ccnc4)(c4ccc(Cl)cc4Cl)O3)cc2)CC1 (stereo not drawn) [ketoconazole],Ki,hM5 muscarinic receptor; [4],7.94 µM
same,Ki,hM4 muscarinic receptor; [5],4.57 µM
CC(=O)N(O)CCCCCNC(=O)CCC(=O)N(O)CCCCCNC(=O)CCC(=O)N(O)CCCCCN [deferoxamine],logP,[1],0.9
CCNC(=O)CCC/C=C\C[C@@H]1[C@@H](/C=C/[C@@H](O)CCc2ccccc2)[C@H](O)C[C@@H]1O [bimatoprost],logP,[1],3.4
CC(C)OC(=O)CCC/C=C\C[C@@H]1[C@@H](/C=C/[C@@H](O)COc2cccc(C(F)(F)F)c2)[C@H](O)C[C@@H]1O [travoprost],logP,[1],4.6
CC[N+](CC)(CC)CCOc1cccc(OCC[N+](CC)(CC)CC)c1OCC[N+](CC)(CC)CC [gallamine],Ki,hM5 muscarinic receptor; [4],2.19 µM
same,Ki,hM4 muscarinic receptor; [5],0.794 µM
CC1=C(C/C=C(\C)CCC[C@H](C)CCC[C@H](C)CCCC(C)C)C(=O)c2ccccc2C1=O [phytonadione],logP,[1],9.3
